What follows are compounds tested against T1, Human CaV2.2 channels (Homo sapiens, UniProt Q00975) (assay: Fluorescent assay for CaV2.2 channels using potassium depolarization to induce channel opening (FLIPR, Fluo-4)). Details: 3 μM test compound, 30 mM KCl, HEK293 cells stably expressing human CaV2.2; read-out: %-Inhib (CaV2.2) @3 μM @30 mM KCl.
T1 construct: expressed in transfected cells
T1 sequence (Q00975 whole entry): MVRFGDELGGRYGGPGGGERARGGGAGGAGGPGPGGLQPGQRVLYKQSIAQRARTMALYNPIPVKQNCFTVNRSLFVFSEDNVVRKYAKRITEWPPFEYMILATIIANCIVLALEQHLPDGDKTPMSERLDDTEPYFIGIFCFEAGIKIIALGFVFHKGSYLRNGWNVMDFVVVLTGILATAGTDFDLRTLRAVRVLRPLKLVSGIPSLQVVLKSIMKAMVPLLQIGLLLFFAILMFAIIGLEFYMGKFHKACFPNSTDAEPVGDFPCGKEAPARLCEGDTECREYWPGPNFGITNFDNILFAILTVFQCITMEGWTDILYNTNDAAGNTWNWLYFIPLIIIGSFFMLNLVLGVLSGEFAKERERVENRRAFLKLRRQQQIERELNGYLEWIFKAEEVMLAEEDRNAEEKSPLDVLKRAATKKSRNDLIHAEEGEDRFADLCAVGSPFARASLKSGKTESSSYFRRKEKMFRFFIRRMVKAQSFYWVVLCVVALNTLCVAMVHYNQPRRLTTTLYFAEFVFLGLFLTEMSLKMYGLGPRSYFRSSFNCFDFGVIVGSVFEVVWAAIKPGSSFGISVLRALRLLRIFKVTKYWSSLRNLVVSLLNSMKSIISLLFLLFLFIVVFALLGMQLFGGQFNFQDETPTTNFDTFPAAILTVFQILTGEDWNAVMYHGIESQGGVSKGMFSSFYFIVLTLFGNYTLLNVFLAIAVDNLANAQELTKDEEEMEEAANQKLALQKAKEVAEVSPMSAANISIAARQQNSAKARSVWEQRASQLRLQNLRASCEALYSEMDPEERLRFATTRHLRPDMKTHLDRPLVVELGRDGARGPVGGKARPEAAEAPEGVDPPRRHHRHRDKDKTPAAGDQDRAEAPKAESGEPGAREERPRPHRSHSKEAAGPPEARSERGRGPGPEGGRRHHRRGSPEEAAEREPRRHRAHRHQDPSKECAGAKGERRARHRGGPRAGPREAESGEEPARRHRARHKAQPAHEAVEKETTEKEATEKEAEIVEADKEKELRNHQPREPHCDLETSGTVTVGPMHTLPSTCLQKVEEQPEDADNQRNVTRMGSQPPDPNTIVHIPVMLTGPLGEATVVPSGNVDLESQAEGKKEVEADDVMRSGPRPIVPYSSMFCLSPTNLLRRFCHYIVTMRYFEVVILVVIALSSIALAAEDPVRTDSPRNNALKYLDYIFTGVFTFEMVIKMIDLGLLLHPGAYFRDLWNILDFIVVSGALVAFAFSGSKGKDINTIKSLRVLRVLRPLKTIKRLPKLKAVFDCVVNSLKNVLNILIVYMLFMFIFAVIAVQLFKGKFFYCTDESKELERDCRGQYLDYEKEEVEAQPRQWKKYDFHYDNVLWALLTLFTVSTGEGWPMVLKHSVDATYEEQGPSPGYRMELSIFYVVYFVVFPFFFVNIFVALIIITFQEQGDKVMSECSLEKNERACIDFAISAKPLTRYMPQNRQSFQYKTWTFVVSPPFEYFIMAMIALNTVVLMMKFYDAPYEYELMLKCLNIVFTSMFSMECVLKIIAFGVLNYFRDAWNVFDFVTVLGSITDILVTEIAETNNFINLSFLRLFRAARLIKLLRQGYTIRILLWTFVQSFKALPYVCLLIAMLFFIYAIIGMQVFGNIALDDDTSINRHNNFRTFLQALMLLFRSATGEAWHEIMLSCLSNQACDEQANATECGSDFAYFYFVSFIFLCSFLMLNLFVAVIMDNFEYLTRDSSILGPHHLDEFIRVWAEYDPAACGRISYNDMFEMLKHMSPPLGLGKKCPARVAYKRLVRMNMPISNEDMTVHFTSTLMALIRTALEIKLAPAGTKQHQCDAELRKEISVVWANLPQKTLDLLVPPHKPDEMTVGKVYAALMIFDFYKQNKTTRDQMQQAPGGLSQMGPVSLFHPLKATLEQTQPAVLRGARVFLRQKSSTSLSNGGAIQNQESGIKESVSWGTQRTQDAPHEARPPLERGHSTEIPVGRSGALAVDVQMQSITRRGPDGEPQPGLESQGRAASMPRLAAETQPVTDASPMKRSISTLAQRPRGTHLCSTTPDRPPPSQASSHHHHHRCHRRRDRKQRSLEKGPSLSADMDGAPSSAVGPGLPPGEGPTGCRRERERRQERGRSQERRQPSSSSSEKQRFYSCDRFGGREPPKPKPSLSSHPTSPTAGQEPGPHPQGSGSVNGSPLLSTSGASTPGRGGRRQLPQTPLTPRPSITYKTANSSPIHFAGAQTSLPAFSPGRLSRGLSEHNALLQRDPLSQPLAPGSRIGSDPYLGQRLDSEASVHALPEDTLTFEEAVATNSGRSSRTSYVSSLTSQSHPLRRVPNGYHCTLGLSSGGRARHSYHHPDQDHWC
T1 sequence (P54289 25-1103, further chain): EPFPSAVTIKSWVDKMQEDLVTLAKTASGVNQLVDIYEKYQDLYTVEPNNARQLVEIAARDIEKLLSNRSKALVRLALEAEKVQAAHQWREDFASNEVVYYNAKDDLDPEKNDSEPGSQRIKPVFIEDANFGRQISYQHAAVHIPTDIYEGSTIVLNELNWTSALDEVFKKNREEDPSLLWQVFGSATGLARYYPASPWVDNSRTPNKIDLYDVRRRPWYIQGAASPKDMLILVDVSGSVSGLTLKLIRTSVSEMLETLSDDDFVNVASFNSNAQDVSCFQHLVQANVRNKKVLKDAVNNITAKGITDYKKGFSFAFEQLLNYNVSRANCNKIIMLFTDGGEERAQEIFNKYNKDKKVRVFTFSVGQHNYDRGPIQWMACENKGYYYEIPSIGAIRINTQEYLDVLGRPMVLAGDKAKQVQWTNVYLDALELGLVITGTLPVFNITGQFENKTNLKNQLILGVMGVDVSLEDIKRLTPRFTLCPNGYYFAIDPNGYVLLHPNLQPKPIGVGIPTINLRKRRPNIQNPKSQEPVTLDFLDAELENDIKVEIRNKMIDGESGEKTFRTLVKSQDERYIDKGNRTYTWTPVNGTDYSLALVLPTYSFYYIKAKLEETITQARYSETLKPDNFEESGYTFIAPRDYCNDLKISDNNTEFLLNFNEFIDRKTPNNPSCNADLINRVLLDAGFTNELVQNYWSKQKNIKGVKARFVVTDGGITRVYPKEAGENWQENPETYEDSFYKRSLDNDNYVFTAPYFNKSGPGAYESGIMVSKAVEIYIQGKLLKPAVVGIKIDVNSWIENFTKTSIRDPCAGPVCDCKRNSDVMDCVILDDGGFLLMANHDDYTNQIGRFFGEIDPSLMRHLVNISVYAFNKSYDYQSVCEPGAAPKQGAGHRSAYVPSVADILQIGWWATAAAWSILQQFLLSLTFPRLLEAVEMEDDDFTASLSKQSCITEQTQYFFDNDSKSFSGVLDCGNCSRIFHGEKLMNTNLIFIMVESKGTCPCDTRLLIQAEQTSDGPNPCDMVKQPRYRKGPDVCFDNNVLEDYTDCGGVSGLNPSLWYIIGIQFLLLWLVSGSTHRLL
T1 sequence (P54284 whole entry, further chain): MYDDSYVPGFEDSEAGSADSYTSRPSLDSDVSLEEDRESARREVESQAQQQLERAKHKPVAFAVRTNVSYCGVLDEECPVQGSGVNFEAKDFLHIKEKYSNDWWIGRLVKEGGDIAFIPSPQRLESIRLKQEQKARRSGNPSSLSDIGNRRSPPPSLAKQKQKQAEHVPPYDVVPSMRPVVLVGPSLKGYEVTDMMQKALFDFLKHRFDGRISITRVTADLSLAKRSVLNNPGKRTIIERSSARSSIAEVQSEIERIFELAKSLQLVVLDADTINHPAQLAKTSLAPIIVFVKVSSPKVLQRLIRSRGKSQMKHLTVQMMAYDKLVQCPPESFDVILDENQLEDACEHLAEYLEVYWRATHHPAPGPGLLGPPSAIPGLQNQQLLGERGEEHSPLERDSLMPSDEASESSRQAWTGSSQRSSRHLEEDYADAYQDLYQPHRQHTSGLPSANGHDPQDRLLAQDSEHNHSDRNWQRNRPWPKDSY
Assay type: cell-based
Excerpt: In the process, the Ca^2+ influx is quantified in the FLIPR assay with the aid of a Ca^2+-sensitive dye (type Fluo-4, Molecular Probes Europe BV, Leiden, the Netherlands) in a fluorescent imaging plate reader (FLIPR 3, Molecular Devices, Sunnyvale, USA), as described hereinafter.
2.1 Fluorescent Assay for CaV2.2 Channels Using Potassium Depolarization to Induce Channel Opening
Human CaV2.2 channels were stably expressed in HEK293 cells together with alpha2-delta and beta subunits of voltage gated calcium channels. In addition, an inwardly rectifying potassium channel (Kir2.3) was stably expressed in these cells to augment control of the cell membrane potential by the concentration of extracellular potassium ions. Raise of the extracellular potassium concentration leads to depolarization of the membrane potential and thus regulates the voltage dependent state of CaV2.2 channels. For preparation, cells were seeded in black poly-D-lysine coated 96-well plates (Becton Dickinson, Biocoat 4640) in 100 μl medium [500 ml DMEM/F-12 plus Glutamax (Invitrogen 31331-093) plus 5.5 ml MEM NEAA 100× (Invitrogen 11140-035) plus 50 ml FBS decomplemented (Invitrogen 10270-106) plus 4.4 ml Geneticin (Invitrogen 10131-027) plus 1.1 ml Hygromycin B (Invitrogen 10687-010) plus 68.75 μl Puromycin (Clontech, 631306)] at a cell density of 45.000 cells per well.
Plates were incubated at 37° C. (5% CO2) for 20 to 23 hours. On the day of experiment medium was discarded and cells were loaded with Fluo 4 by addition of 100 μl of basic assay buffer (10 mM HEPES, 30 mM KCl, 120 mM NaCl, 0.8 mM CaCl2, 1.7 mM MgCl2, 10 mM Glucose, 0.1% BSA. pH 7.4) containing 2 μM Fluo 4 (Molecular Probes; F-14201), 0.01% pluronic acid (Molecular Probes; P-6866) and 2.5 mM probenecid (Molecular Probes; P36400). Cells were incubated in the dark at 25° C. for 60 min. Then the dye containing buffer was discarded and 100 μl basic assay buffer was added. Subsequently cells were incubated in the dark at 25° C. for 15 min. 25 μl of basic assay buffer with or without test compound were added and cells were incubated again in the dark at 25° C. for 15 min. Fluorescence intensity was measured on a FLIPR 3 instrument (Molecular Devices Corp., Sunnyvale, Calif.) with excitation at 480 nm and emission at 535 nm. After continuously reading fluorescence for 30 sec, 50 μl of basic assay buffer containing 210 mM KCl (NaCl omitted) were added for depolarization. Peak fluorescent signal intensity was determined and the amplitude of the peak signal, normalized to base line, was used to measure channel inhibition by test compounds.
CC1(C)CN(C(=O)c2c(-c3ccc(Cl)cc3)cc(C(F)(F)F)n2Cc2ccccc2)CCN1 [SC-82, [1-Benzyl-3-(4-chlorophenyl)-5-(trifluoromethyl)-1H-pyrrol-2-yl]-(3,3-dimethyl-piperazin-1-yl)-methanone] was tested, and the inhibition at 3 µM was 75 to 95%.
In the case of CN(CC1CCCCO1)C(=O)c1c(-c2ccc(Cl)cc2)cc(C(F)(F)F)n1Cc1ccccc1 (stereo not shown) [SC-202, 1-Benzyl-3-(4-chlorophenyl)-N-methyl-N-(tetrahydro-pyran-2-yl-methyl)-5-(trifluoromethyl)-1H-pyrrole-2-carboxylic acid amide], the inhibition at 3 µM is reported as 75 to 95%.
Work on Cc1c(-c2ccc(Cl)cc2F)c(C(=O)N(C)CC2CCOC2)n(Cc2ccccc2)c1C(F)(F)F (stereo not shown) [SC-167, 1-Benzyl-3-(4-chloro-2-fluoro-phenyl)-N,4-dimethyl-N-(tetrahydro-furan-3-yl-methyl)-5-(trifluoromethyl)-1H-pyrrole-2-carboxylic acid amide] yielded an inhibition at 3 µM greater than 95%.
Work on Cc1c(-c2ccc(Cl)cc2)c(C(=O)NC2(CO)CC2)n(Cc2ccccc2)c1C(F)(F)F [SC-16, 1-Benzyl-3-(4-chlorophenyl)-N-[1-(hydroxymethyl)-cyclopropyl]-4-methyl-5-(trifluoromethyl)-1H-pyrrole-2-carboxylic acid amide] yielded an inhibition at 3 µM of 75 to 95%.
Work on Cc1c(-c2ccc(F)c(Cl)c2)c(C(=O)N(C)CC(C)(C)C)n(Cc2ccccc2)c1C(F)(F)F [SC-256, 1-Benzyl-3-(3-chloro-4-fluoro-phenyl)-N-(2,2-dimethyl-propyl)-N,4-dimethyl-5-(trifluoromethyl)-1H-pyrrole-2-carboxylic acid amide] yielded an inhibition at 3 µM of 30 to 40%.
For Cc1c(-c2ccc(Cl)cc2)c(C(=O)N(C)C(C)CS(C)(=O)=O)n(Cc2ccccc2)c1C(F)(F)F (stereo not shown) [SC-141, 1-Benzyl-3-(4-chlorophenyl)-N,4-dimethyl-N-(1-methyl-2-methylsulfonyl-ethyl)-5-(trifluoromethyl)-1H-pyrrole-2-carboxylic acid amide], the inhibition at 3 µM was greater than 95%.
In the case of CS(=O)(=O)C1CN(C(=O)c2c(-c3ccc(Cl)cc3)cc(C(F)(F)F)n2Cc2ccccc2)C1 [SC-201, [1-Benzyl-3-(4-chlorophenyl)-5-(trifluoromethyl)-1H-pyrrol-2-yl]-(3-methylsulfonyl-azetidin-1-yl)-methanone], the inhibition at 3 µM is reported as 75 to 95%.
Compound CN(CC(C)(C)CO)C(=O)c1c(-c2ccc(Cl)cc2)cc(C(F)(F)F)n1Cc1ccccc1 [SC-79, 1-Benzyl-3-(4-chlorophenyl)-N-(3-hydroxy-2,2-dimethyl-propyl)-N-methyl-5-(trifluoromethyl)-1H-pyrrole-2-carboxylic acid amide] has an inhibition at 3 µM greater than 95%.
O=C(c1c(-c2ccc(Cl)cc2)cc(C(F)(F)F)n1Cc1cccc(Cl)c1)N1CCOCC1 [SC-74, [3-(4-Chlorophenyl)-1-[(3-chlorophenyl)-methyl]-5-(trifluoromethyl)-1H-pyrrol-2-yl]-morpholin-4-yl-methanone] showed an inhibition at 3 µM greater than 95%.
Cc1c(-c2ccc(C(F)(F)F)cc2)c(C(=O)N(C)CC(C)(C)C)n(Cc2ccccc2)c1C(F)(F)F [SC-233, 1-Benzyl-N-(2,2-dimethyl-propyl)-N,4-dimethyl-5-(trifluoromethyl)-3-[4-(trifluoromethyl)-phenyl]-1H-pyrrole-2-carboxylic acid amide] was tested, and the inhibition at 3 µM was 30 to 40%.
Cc1c(-c2ccc(Cl)c(F)c2)c(C(=O)N2CC(F)(F)C2)n(Cc2ccccc2)c1C(F)(F)F [SC-98, [1-Benzyl-3-(4-chloro-3-fluoro-phenyl)-4-methyl-5-(trifluoromethyl)-1H-pyrrol-2-yl]-(3,3-difluoro-azetidin-1-yl)-methanone] showed an inhibition at 3 µM of 40 to 75%.
Compound Cc1c(-c2ccc(Cl)cc2)c(C(=O)N2CCOCC2)n(Cc2ccccc2)c1C(F)(F)F [SC-03, [1-Benzyl-3-(4-chlorophenyl)-4-methyl-5-(trifluoromethyl)-1H-pyrrol-2-yl]-morpholin-4-yl-methanone] has an inhibition at 3 µM greater than 95%.
Work on Cc1c(-c2ccc(F)c(Cl)c2)c(C(=O)N2CC(O)C2)n(Cc2ccccc2)c1C(F)(F)F [SC-255, [1-Benzyl-3-(3-chloro-4-fluoro-phenyl)-4-methyl-5-(trifluoromethyl)-1H-pyrrol-2-yl]-(3-hydroxy-azetidin-1-yl)-methanone] yielded an inhibition at 3 µM of 40 to 75%.
Cc1c(-c2ccc(F)cc2)c(C(=O)N(C)CCS(C)(=O)=O)n(Cc2ccccc2)c1C(F)(F)F [SC-219, 1-Benzyl-3-(4-fluorophenyl)-N,4-dimethyl-N-(2-methylsulfonyl-ethyl)-5-(trifluoromethyl)-1H-pyrrole-2-carboxylic acid amide] gave an inhibition at 3 µM greater than 95%.
In the case of Cc1c(-c2ccc(Cl)cc2F)c(C(=O)N(C)C2CC2)n(Cc2ccccc2)c1C(F)(F)F [SC-159, 1-Benzyl-3-(4-chloro-2-fluoro-phenyl)-N-cyclopropyl-N,4-dimethyl-5-(trifluoromethyl)-1H-pyrrole-2-carboxylic acid amide], the inhibition at 3 µM is reported as greater than 95%.
Cc1c(-c2ccc(F)cc2)c(C(=O)N2CCOC(C)(C)C2)n(Cc2ccccc2)c1C(F)(F)F [SC-225, [1-Benzyl-3-(4-fluorophenyl)-4-methyl-5-(trifluoromethyl)-1H-pyrrol-2-yl]-(2,2-dimethyl-morpholin-4-yl)-methanone] was tested, and the inhibition at 3 µM was greater than 95%.
Compound Cc1c(-c2ccc(F)cc2)c(C(=O)N(C)CC(C)(C)C)n(Cc2ccccc2)c1C(F)(F)F [SC-224, 1-Benzyl-N-(2,2-dimethyl-propyl)-3-(4-fluorophenyl)-N,4-dimethyl-5-(trifluoromethyl)-1H-pyrrole-2-carboxylic acid amide] has an inhibition at 3 µM of 75 to 95%.
With O=C(c1c(-c2ccc(Cl)cc2)cc(C(F)(F)F)n1Cc1ccccc1)N1CC(F)(F)C1 [SC-94, [1-Benzyl-3-(4-chlorophenyl)-5-(trifluoromethyl)-1H-pyrrol-2-yl]-(3,3-difluoro-azetidin-1-yl)-methanone] the inhibition at 3 µM was 75 to 95%.
Compound Cc1c(-c2ccc(Cl)cc2)c(C(=O)N2CCNC(=O)C2)n(Cc2cccc(Cl)c2)c1C(F)(F)F [SC-55, 4-[3-(4-Chlorophenyl)-1-[(3-chlorophenyl)-methyl]-4-methyl-5-(trifluoromethyl)-1H-pyrrole-2-carbonyl]-piperazin-2-one] has an inhibition at 3 µM greater than 95%.
CN(CC1CCCO1)C(=O)c1c(-c2ccc(Cl)cc2)cc(C(F)(F)F)n1Cc1ccccc1 (stereo not shown) [SC-197, 1-Benzyl-3-(4-chlorophenyl)-N-methyl-N-(tetrahydro-furan-2-yl-methyl)-5-(trifluoromethyl)-1H-pyrrole-2-carboxylic acid amide] showed an inhibition at 3 µM greater than 95%.
With Cc1c(-c2ccc(Cl)cc2F)c(C(=O)N2CCNC(=O)C2)n(Cc2ccccc2)c1C(F)(F)F [SC-61, 4-[1-Benzyl-3-(4-chloro-2-fluoro-phenyl)-4-methyl-5-(trifluoromethyl)-1H-pyrrole-2-carbonyl]-piperazin-2-one] the inhibition at 3 µM was greater than 95%.
CN(CC(C)(C)C)C(=O)c1c(-c2ccc(Cl)cc2)cc(C(F)(F)F)n1Cc1cccc(S(C)(=O)=O)c1 [SC-266, 3-(4-Chlorophenyl)-N-(2,2-dimethyl-propyl)-N-methyl-1-[(3-methylsulfonyl-phenyl)-methyl]-5-(trifluoromethyl)-1H-pyrrole-2-carboxylic acid amide] gave an inhibition at 3 µM of 75 to 95%.
In the case of Cc1c(-c2ccc(OC(F)(F)F)cc2)c(C(=O)N2CCOC(C)(C)C2)n(Cc2ccccc2)c1C(F)(F)F [SC-242, [1-Benzyl-4-methyl-5-(trifluoromethyl)-3-[4-(trifluoromethyloxy)-phenyl]-1H-pyrrol-2-yl]-(2,2-dimethyl-morpholin-4-yl)-methanone], the inhibition at 3 µM is reported as 75 to 95%.
Work on Cc1nnc(CN(C)C(=O)c2c(-c3ccc(Cl)cc3)cc(C(F)(F)F)n2Cc2ccccc2)o1 [SC-206, 1-Benzyl-3-(4-chlorophenyl)-N-methyl-N-[(5-methyl-[1,3,4]oxadiazol-2-yl)-methyl]-5-(trifluoromethyl)-1H-pyrrole-2-carboxylic acid amide] yielded an inhibition at 3 µM of 75 to 95%.
Work on Cc1c(-c2ccc(Cl)cc2)c(C(=O)N2CC(S(C)(=O)=O)C2)n(Cc2ccccc2)c1C(F)(F)F [SC-137, [1-Benzyl-3-(4-chlorophenyl)-4-methyl-5-(trifluoromethyl)-1H-pyrrol-2-yl]-(3-methylsulfonyl-azetidin-1-yl)-methanone] yielded an inhibition at 3 µM of 75 to 95%.

Source: patent US9302988B2, “Fluoromethyl-substituted pyrrole carboxamides” (GRÜNENTHAL GMBH, priority 2012, dated 2016)
